Measurements as given in patent publication US11931366B2, “Compositions and methods of use thereof for treatment of proteinopathies” (priority 2018, dated 2024).
“Also recorded” adds a separate entry of the source. Read-outs that look alike come from different tables or passages of the source.

How the values were obtained:
[1] = tested on: transgenic C. elegans expressing human mutant alpha-1-antitrypsin gene fused to GFP; assay: High-throughput phenotypic drug screen and dose response in the C. elegans model of ATD (mutant AT accumulation); type: in vivo; settings: for reduction of mutant AT accumulation: 8-point dose response curves, FIG. 4B, 5, 11; for hit in high-throughput screening campaign: C. elegans model of ATD, FIG. 4A
[2] = tested on: autophagy pathway (LC3, p62); assay: Autophagy markers (LC3-II/I, p62) following fluphenazine treatment; type: in vivo; settings: for autophagic flux: liver
[3] = tested on: mutant AT protein accumulation in liver; type: in vivo, mouse; settings: vs control (CTR)
[4] = following fluphenazine treatment

Row | SMILES | reduction of mutant AT accumulation [1] | hit in high-throughput screening campaign [1] | further results
1 | FC(F)(F)c1ccc(SCCCN2CCN(c3cccc(Cl)c3)CC2)nc1 [AW00794, Piperazine, 1-(3-chlorophenyl)-4-[3-[[5-(trifluoromethyl)-2-pyridinyl]thio]propyl]-] | reduce mutant AT protein accumulation; also recorded: reduces AT accumulation | – | –
2 | OC(CNCc1ccc(Cl)cc1)CSc1ccccc1 (stereo not drawn) [RDR 03172] | reduce mutant AT protein accumulation; also recorded: reducing AT accumulations in a dose-dependent manner | – | –
3 | OCCN1CCN(CCCN2c3ccccc3Sc3ccc(C(F)(F)F)cc32)CC1 [fluphenazine] | dose-dependent reduction of mutant AT; also recorded: reduce mutant AT accumulation in a dose-dependent manner | hit compounds | reduction of mutant AT accumulation ([1]; listed as Fluphenazine): reduce misfolded AT protein accumulation in a dose and time-dependent manner; LC3-II/I ratio [2, 4]: increase; p62 [2, 4]: reduction; autophagic flux [2]: enhancing autophagic flux; autophagic flux ([2]; listed as Fluphenazine): enhances autophagic flux; Sirius red staining (collagen deposition, liver fibrosis) ([3]; mouse liver sections): significantly reduced; accumulation of mutant AT protein (purple dots) in liver sections ([3]; transgenic mouse model of ATD): significantly reduced accumulation of mutant AT protein; percent area of purple dots (quantification of AT accumulations) ([3]; transgenic mouse model of ATD): significantly reduced; accumulation of mutant AT protein (purple dots) in liver sections ([3]; transgenic mouse model of ATD, listed as Fluphenazine): reduces mutant AT accumulation
4 | OCCN1CCN(CCCN2c3ccccc3Sc3ccc(Cl)cc32)CC1 [perphenazine] | reduce mutant AT accumulation in a dose-dependent manner | hit compounds | –
5 | CN1CCN(CCCN2c3ccccc3Sc3ccc(Cl)cc32)CC1 [prochlorperazine] | reduce mutant AT accumulation in a dose-dependent manner | hit compounds | –
6 | CCSc1ccc2c(c1)N(CCCN1CCN(C)CC1)c1ccccc1S2 [thiethylperazine] | reduce mutant AT accumulation in a dose-dependent manner | – | –
7 | CSc1ccc2c(c1)N(CCC1CCCCN1C)c1ccccc1S2 (stereo not drawn) [thioridazine] | reduce mutant AT accumulation in a dose-dependent manner | – | –
8 | CN1CCN(CCCN2c3ccccc3Sc3ccc(C(F)(F)F)cc32)CC1 [trifluoperazine] | reduce mutant AT accumulation in a dose-dependent manner | hit compounds | –
